Reference: patent publication US20250296916A1, “BICYCLIC PIPERAZINONES AND THERAPEUTIC USES THEREOF” (Cytokinetics, Inc., priority 2022, published 2025)

System: rabbit skeletal myofibrils (approximately 90% fast fibers)
Assay: Activation of fast skeletal myofibrils (PUMA coupled-enzyme ATPase assay)
Type: biochemical
Details: concentration at which the compound increased the enzymatic activity by 40%; calcium at pCa25; PM12 buffer pH 6.8
Method: Preparation of fast skeletal myofibrils: Rabbit skeletal myofibrils were prepared based upon the method of Herrmann et al. (Biochem. 32 (28): 7255-7263 (1993). Myofibrils were prepared from rabbit psoas muscle purchased from Pel-Freez Biologicals (Arkansas) within 2 days of ordering, stored on ice. Minced muscle was homogenized in 10 volumes of ice-cold “standard” buffer (50 mM Tris, pH 7.4, 0.1 M KOAc, 5 mM KCl, 2 mM dithiothreitol (DTT), 0.2 mM phenylmethylsulfonyl fluoride (PMSF), 10 μM leupeptin, 5 μM pepstatin, and 0.5 mM sodium azide) containing 5 mM ethylenediaminetetraacetic acid (EDTA) and 0.5% Triton X-100 using an Omni-Macro homogenizer. Myofibrils were recovered by low speed centrifugation (3000 rpm for 10 minutes) and washed 2 times in the Triton X-100 containing buffer to ensure removal of cellular membrane. Following the Triton washes, myofibrils were washed 3 times in “standard” buffer containing 2 mM magnesium acetate. A final wash in assay buffer (12 mM piperazine-1,4-bis(2-ethanesulfonic acid) (PIPES), pH 6.8, 60 mM KCl, 1 mM DTT) was performed and brought to 10% sucrose for flash freezing in liquid nitrogen and storage at −80° C.
Activation of Fast Skeletal Myofibrils: Fast fiber activators were identified by measuring the enzymatic activity of muscle myofibril preparations using the proprietary PUMA (trademark) (see, e.g., U.S. Pat. Nos. 6,410,254, 6,743,599, 7,202,051, and 7,378,254) assay system. Myofibril preparations consisted of rabbit skeletal muscle (approximately 90% fast fibers) that had been mechanically homogenized and washed with a detergent (Triton X-100) to remove cellular membranes. This preparation retained all of the sarcomeric components in a native conformation and the enzymatic activity was still regulated by calcium. Compounds were tested using a myofibril suspension and a level of calcium sufficient to increase enzymatic activity of the myofibrils to 25% of their maximal rate (termed pCa25). Enzymatic activity was tracked via a pyruvate kinase and lactate dehydrogenase-coupled enzyme system. This assay regenerates myosin-produced ADP into ATP by oxidizing NADH, producing an absorbance change at 340 nm. The buffering system was 12 mM PIPES, 2 mM MgCl2, 1 mM DTT at pH 6.8 (PM12 buffer). […] In Table 3, “Example Compound” refers to the compound labeled with the same number in Table 2.

AC1.4 [µM]	Compound
1.88	CCC[C@H]1C(=O)Nc2ccccc2N1C(=O)Nc1ccc(OC)cc1 [Compound 55, (S)-N-(4-methoxyphenyl)-3-oxo-2-propyl-3,4-dihydroquinoxaline-1(2H)-carboxamide]
0.42	CCC[C@H]1C(=O)Nc2ccccc2N1C(=O)Nc1ccccc1F [Compound 56, (S)-N-(2-fluorophenyl)-3-oxo-2-propyl-3,4-dihydroquinoxaline-1(2H)-carboxamide]
0.24	CCC[C@H]1C(=O)Nc2ccccc2N1C(=O)Nc1cccc(F)c1 [Compound 57, (S)-N-(3-fluorophenyl)-3-oxo-2-propyl-3,4-dihydroquinoxaline-1(2H)-carboxamide]
0.26	CCC[C@H]1C(=O)Nc2ccccc2N1C(=O)Nc1ccc(F)cc1 [Compound 58, (S)-N-(4-fluorophenyl)-3-oxo-2-propyl-3,4-dihydroquinoxaline-1(2H)-carboxamide]
1.96	CCC[C@H]1C(=O)Nc2ccccc2N1C(=O)Nc1cnn(C)c1 [Compound 59, (S)-N-(1-methyl-1H-pyrazol-4-yl)-3-oxo-2-propyl-3,4-dihydroquinoxaline-1(2H)-carboxamide]
0.82	CCC[C@H]1C(=O)Nc2ccccc2N1C(=O)Nc1ccccc1C [Compound 60, (S)-3-oxo-2-propyl-N-(o-tolyl)-3,4-dihydroquinoxaline-1(2H)-carboxamide]
0.43	CCC[C@H]1C(=O)Nc2ccccc2N1C(=O)Nc1cccc(C)c1 [Compound 61, (S)-3-oxo-2-propyl-N-(m-tolyl)-3,4-dihydroquinoxaline-1(2H)-carboxamide]
1.39	CCC[C@H]1C(=O)Nc2ccccc2N1C(=O)Nc1ccc(C)cc1 [Compound 62, (S)-3-oxo-2-propyl-N-(p-tolyl)-3,4-dihydroquinoxaline-1(2H)-carboxamide]
0.04	CC[C@H](C)[C@H]1C(=O)Nc2ccccc2N1C(=O)c1cnn(C)c1 [Compound 63, (S)-3-((S)-sec-butyl)-4-(1-methyl-1H-pyrazole-4-carbonyl)-3,4-dihydroquinoxalin-2(1H)-one]
0.24	CCC[C@H]1C(=O)Nc2ccc(Cl)cc2N1C(=O)c1cnn(C)c1 [Compound 64, (S)-6-Chloro-4-(1-methyl-1H-pyrazole-4-carbonyl)-3-propyl-3,4-dihydroquinoxalin-2(1H)-one]
0.39	CCC[C@H]1C(=O)Nc2ccccc2N1C(=O)c1ccc2cncn2c1 [Compound 65, (S)-4-(imidazo[1,5-a]pyridine-6-carbonyl)-3-propyl-3,4-dihydroquinoxalin-2(1H)-one]
0.17	CCC[C@H]1C(=O)Nc2ccccc2N1C(=O)c1ccn2cncc2c1 [Compound 66, (S)-4-(imidazo[1,5-a]pyridine-7-carbonyl)-3-propyl-3,4-dihydroquinoxalin-2(1H)-one]
1.31	CCC[C@H]1C(=O)Nc2ccccc2N1C(=O)c1cnn(CCO)c1 [Compound 67, (S)-4-(1-(2-hydroxyethyl)-1H-pyrazole-4-carbonyl)-3-propyl-3,4-dihydroquinoxalin-2(1H)-one]
0.16	CC(C)C[C@H]1C(=O)Nc2ccccc2N1C(=O)c1cnn(C)c1 [Compound 68, (S)-3-isobutyl-4-(1-methyl-1H-pyrazole-4-carbonyl)-3,4-dihydroquinoxalin-2(1H)-one]
1.52	CCC[C@H]1C(=O)Nc2cccc(Br)c2N1C(=O)c1cnn(C)c1 [Compound 69, (S)-5-bromo-4-(1-methyl-1H-pyrazole-4-carbonyl)-3-propyl-3,4-dihydroquinoxalin-2(1H)-one]
0.46	CCC[C@H]1C(=O)Nc2ccccc2N1C(=O)c1cc2cccn2cn1 [Compound 70, (S)-3-propyl-4-(pyrrolo[1,2-c]pyrimidine-3-carbonyl)-3,4-dihydroquinoxalin-2(1H)-one]
0.54	CCC[C@H]1C(=O)Nc2ccccc2N1C(=O)c1cn[nH]c1 [Compound 71, (S)-3-propyl-4-(1H-pyrazole-4-carbonyl)-3,4-dihydroquinoxalin-2(1H)-one]
